US4752614A, “Pharmaceutical compositions of tellerium and selenium compounds for the induction of in vivo and in vitro production of cytokines” (Bar-Ilan University, priority 1987, dated 1988)

Key:
IL-2 = IL-2 secretion by mouse spleen cells in vitro, CTLD proliferation (Example 17); assay type: cell-based, male Balb/c mice; details: for activation at 1 µg/mL: Mus musculus, read-out: Spleen Cells, percent in parentheses (increase over control)
Method: The compounds listed below were tested in vitro at various concentrations that ranged from 10 μg/ml cells to 1×10^-6 μg/ml of cell mixtures. Cells were obtained from spleens of male Balb/c mice 6-8 weeks of age. Spleens were pushed through a stainless steel 60 mesh strainer to separate cells.

T-cell lymphocytes = assay: Lymphokine induction, proliferation and receptor activation in T-cell lymphocytes (statement)
Source text: Thus the invention also contemplates the use alone of TeO2 and tellurium compounds that are active as lymphokine inducers.

IL-2 receptors = assay: Induction of IL-2 receptors of human mononuclear cells, proliferation with recombinant IL-2 (Example 18); assay type: cell-based
Method: Human MNC were brought to a concentration of 10^6 cells/ml. RPMI+10% FCS. Aliquots of 0.2 ml. were placed in duplicate wells of microdishes and plates were incubated at 37° C. for 24 hrs. […] Plates were further incubated for 48 hrs. and labelled with 3H thymidine 24 hrs. before harvesting.
The proliferation was measured by ^3 HT uptake as described by Gillis et al, J. Immunol. […] The results are expressed in counts per minute.

human mononuclear cells = assay: Proliferation of human mononuclear cells (Example 19); assay type: cell-based; details: for proliferation of human mononuclear cells: second part of table
Method: Human mononuclear cells were obtained by layering heparinized blood over a Ficoll/Hypaque gradient. The mononuclear cells were resuspended in enriched RPMI, rinsed three times and brought to a concentrations of 5×10^5 cells/ml encriched RPMI. […] Aliquots of 0.2 ml of each sample were placed in wells of microplates (triplicates). Microplates were incubated for 72 hours at 37° C. after which they were labelled with H^3 methyl-thymidine 1 μCi/well for an additional 24 hours. Cells were then harvested with a cell harvester.

receptor sites for IL-2 = assay: Detection of IL-2 receptors with fluoresceinated antibody (Example 21); assay type: cell-based, human; details: 1 μg/ml, 24 hours
Method: This example provides an assay to detect the presence of receptor sites for IL-2. […] The cells were washed twice with PDS and then incubated with a specific fluoresceinated antibody against IL-2 receptors as described in Uchiyama et al, J. Immunol.

[1] = 24 hours, 1 μg/ml of cell mixture

Cl[TeH]1(Cl)(Cl)OCCCCO1 [Example 16(d)]
Spleen Cells (IL-2 activity) (IL-2; [1]): 18,075 cpm | activation at 1 µg/mL (IL-2; [1]): 608%

CC(=O)O[Te](OC(C)=O)(c1ccccc1)c1ccccc1 [Ph2 Te (OCOCH3)2, reference compound]
Spleen Cells (IL-2 activity) (IL-2; [1]): 3,500 cpm | activity at level tested (footnote *) (IL-2): no significant activity

O=C(O[Te](OC(=O)c1ccccc1)(c1ccccc1)c1ccccc1)c1ccccc1 [Ph2 Te (OCOPh)2, reference compound]
Spleen Cells (IL-2 activity) (IL-2; [1]): 4,300 cpm | activity at level tested (footnote *) (IL-2): no significant activity

Cl[Te](Cl)(c1ccccc1)c1ccccc1 [Ph2 Te Cl2, reference compound]
Spleen Cells (IL-2 activity) (IL-2; [1]): 2,300 cpm | activity at level tested (footnote *) (IL-2): no significant activity

Cl[Te](Cl)(Cl)c1ccccc1 [Ph Te Cl3, reference compound]
Spleen Cells (IL-2 activity) (IL-2; [1]): 18,000 cpm | activation at 1 µg/mL (IL-2; [1]): 605%

O=[Te]=O [TeO2, Tellurium dioxide, reference compound]
activation of the receptor site in responder T-cell lymphocytes (T-cell lymphocytes): will not cause proliferation of IL-2 producer cells or activate the receptor site | proliferation of IL-2 producer cells (T-cell lymphocytes): will not cause proliferation of IL-2 producer cells | lymphokine production in producer T-cell lymphocytes (T-cell lymphocytes; in vitro and in vivo): will induce lymphokine production | proliferation (3HT uptake) (IL-2 receptors; Test A, 1 μg/ml): 1563 counts per minute | proliferation (3HT uptake) (IL-2 receptors; Test A, 1 × 10^-2 μg/ml): 3108 counts per minute | proliferation (3HT uptake) (IL-2 receptors; Test A, 1 × 10^-3 μg/ml): 2867 counts per minute | proliferation (3HT uptake) (IL-2 receptors; Test A, 1 × 10^-4 μg/ml): 5540 counts per minute | proliferation (3HT uptake) (IL-2 receptors; Test A, 1 × 10^-5 μg/ml): 3442 counts per minute | proliferation (3HT uptake) (IL-2 receptors; Test A, 5 × 10^-1 μg/ml): 4667 counts per minute | proliferation (3HT uptake) (IL-2 receptors; Test A, 5 × 10^-2 μg/ml): 2515 counts per minute | proliferation (3HT uptake) (IL-2 receptors; Test A, 7 × 10^-1 μg/ml): 2475 counts per minute | proliferation (3HT uptake) (IL-2 receptors; Test B, 1 μg/ml): 3275 counts per minute | proliferation (3HT uptake) (IL-2 receptors; Test B, 1 × 10^-2 μg/ml): 3077 counts per minute | proliferation (3HT uptake) (IL-2 receptors; Test B, 1 × 10^-3 μg/ml): 3800 counts per minute | proliferation (3HT uptake) (IL-2 receptors; Test B, 1 × 10^-4 μg/ml): 2925 counts per minute | proliferation (3HT uptake) (IL-2 receptors; Test B, 1 × 10^-5 μg/ml): 3645 counts per minute | proliferation (3HT uptake) (IL-2 receptors; Test B, 5 × 10^-1 μg/ml): 5405 counts per minute | proliferation (3HT uptake) (IL-2 receptors; Test B, 5 × 10^-2 μg/ml): 4280 counts per minute | proliferation (3HT uptake) (IL-2 receptors; Test B, 7 × 10^-1 μg/ml): 4302 counts per minute | Spleen Cells (IL-2 activity) (IL-2; [1]): 17,055 cpm | Spleen Cells, percent in parentheses (increase over control) (IL-2; [1]): +508% | effect on proliferation (human mononuclear cells; any concentration that was tested): No significant effect | proliferation of human mononuclear cells (human mononuclear cells; 1 μg/ml): 2842 | proliferation of human mononuclear cells (human mononuclear cells; 5 μg/ml): 3028 | proliferation of human mononuclear cells (human mononuclear cells; 1 × 10^-1 μg/ml): 4825 | proliferation of human mononuclear cells (human mononuclear cells; 1 × 10^-2 μg/ml): 4730 | proliferation of human mononuclear cells (human mononuclear cells; 1 × 10^-3 μg/ml): 6168 | proliferation of human mononuclear cells (human mononuclear cells; 1 × 10^-4 μg/ml): 5331 | proliferation of human mononuclear cells (human mononuclear cells; 5 × 10^-1 μg/ml): 4773 | proliferation of human mononuclear cells (human mononuclear cells; 5 × 10^-2 μg/ml): 5802 | cells positive for IL-2 receptors (receptor sites for IL-2): 5%
